# Legend:
# [1] = target: TEAD1(210-426) binding to YAP(50-100) (Homo sapiens, UniProt P28347); assay: TR-FRET Assay for TEAD1(210-426) Binding to YAP(50-100); conditions: His-TEAD 10 nM, YAP-Biotin peptide 50 nM
# Protocol: Compounds were performed 3 fold serial dilution, 12 data points, added to 384 well white plate. The final DMSO concentration is 1%, duplicate for each concentration. Then His-TEAD protein was added to a final concentration of 10 nM, and allowed to preincubate for 30 minutes at room temperature. Assay buffer was added as background control.
# YAP-Biotin peptide was added to a final concentration of 50 nM, mixed well, incubate 10 minutes at room temperature. The YAP(50-100) peptide sequence used here is named SEQ ID NO: 2
# The Europium-labeled anti-6×His antibody and APC labeled streptavidin were diluted according to the instructions, this detection solution was mixed 1:1 with reaction solution, incubated 1 hour at room temperature.
# TR-FRET measurements were made on an Envision (Perkin Elmer), using an excitation wavelength of 320 nm and emissions read at 620 nm and 665 nm. The ratio of the 665 nm to the 620 nm multiply 10000 provides a normalized TR-FRET signal that represents the extent of binding.
# Half inhibition concentration IC50 value was calculated by XLfit software.
# MSTO-211H cells = assay: Proliferation Assay (CellTiter-Glo Luminescent Cell Viability Assay); assay type: cell-based; conditions: Homo sapiens, 96 hours treatment
# Protocol: Example 5: Proliferation Assay
# The effect of compound on YAP driven cancer cells proliferation was assessed in MSTO-211H (ATCC, CRL-2081TM) or NCI-H2052 (ATCC, CRL-5915TM) cells using CellTiter-Glo Luminescent Cell Viability Assay (Promega, G7570).
# Briefly, individual cell lines were seeded in 96-well cell culture plate at the density of 1,500 cells per well and cultured in RPMII1640 (Gibco-A10491-01)+10% FBS (Gibco-10099-141C)+1% Penicillin-Streptomycin (5,000 U/mL, Gibco-15070-063) overnight at 37° C. with 5% CO2 before adding the compounds.
# Following incubation, serial dilutions of compounds dissolved in DMSO were added to each well (3-fold dilution with 9 concentration points). The final concentration of DMSO present in this assay is below 0.5% and make duplication for each compound treated well.
# Following 96 hours treatment, compound mediated cell growth inhibition was measured using CellTiter-Go Luminescent Cell Viability Assay (Promega, G7570). […] CellTiter-Glo in each assay well, mix and incubate at room temperature for 10 min. Read signal using EnVision® Multilabel Plate Reader (Perkin Elmer).
# For data analysis, cell proliferation inhibition was calculated using the following formula:
# Inhibition %=(1−(Compound treated well CTG signal/DMSO well CTG signal))*100.
# IC50 values were calculated using GraphPad Prism software using a four-parameter fit model.
# Sequence of TEAD1(210-426) binding to YAP(50-100) (P28347 209-426): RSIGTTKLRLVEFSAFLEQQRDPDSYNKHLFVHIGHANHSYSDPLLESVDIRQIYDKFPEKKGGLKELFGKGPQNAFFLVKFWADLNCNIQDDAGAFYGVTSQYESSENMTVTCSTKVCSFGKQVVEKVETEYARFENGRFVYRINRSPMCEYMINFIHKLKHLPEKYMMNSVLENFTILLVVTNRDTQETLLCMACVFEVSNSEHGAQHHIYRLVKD
Compound,IC50 [1] [nM],IC50 (MSTO-211H cells) [nM]
"C[C@@H](c1ccccn1)n1ccc(-c2nn(-c3ccc(C(F)(F)F)cc3)c3ncccc23)cc1=O [Compound 20, (S)-1-(1-(pyridin-2-yl)ethyl)-4-(1-(4-(trifluoromethyl)phenyl)-1H-pyrazolo[3,4-b]pyridin-3-yl)pyridin-2(1H)-one]",≤ 100,≤ 1000
C[C@@H](c1ccccn1)n1ccc(-c2nn(-c3ccc(C(F)(F)F)cc3)c3ccc(CO)cc23)cc1=O [Compound 24],≤ 100,≤ 1000
"C[C@@H](c1ccccn1)n1ccc(-c2nn(-c3ccc(C(F)(F)F)cc3)c3cc(CO)ccc23)cc1=O [Compound 28, (S)-4-(6-(hydroxymethyl)-1-(4-(trifluoromethyl)phenyl)-1H-indazol-3-yl)-1-(1-(pyridin-2-yl)ethyl)pyridin-2(1H)-one]",≤ 100,≤ 1000
"C[C@@H](c1ccccn1)n1ccc(-c2nn(-c3ccc(C(F)(F)F)cc3)c3cc(C(=O)O)ccc23)cc1=O [Compound 29, (S)-3-(2-oxo-1-(1-(pyridin-2-yl)ethyl)-1,2-dihydropyridin-4-yl)-1-(4-(trifluoromethyl)phenyl)-1H-indazole-6-carboxylic acid]",> 1000,≤ 1000
"C[C@@H](c1ccccn1)n1ccc(-c2nn(-c3ccc(C(F)(F)F)cc3)c3cc(C#N)ccc23)cc1=O [Compound 31, (S)-3-(2-oxo-1-(1-(pyridin-2-yl)ethyl)-1,2-dihydropyridin-4-yl)-1-(4-(trifluoromethyl)phenyl)-1H-indazole-6-carbonitrile]",> 1000,≤ 1000
"COc1ccc2c(c1)c(-c1ccn([C@@H](C)c3ccccn3)c(=O)c1)nn2-c1ccc(C(F)(F)F)cc1 [Compound 34, (S)-4-(5-methoxy-1-(4-(trifluoromethyl)phenyl)-1H-indazol-3-yl)-1-(1-(pyridin-2-yl)ethyl)pyridin-2(1H)-one]",≤ 100,≤ 1000
"C[C@@H](c1ccccn1)n1ccc(-c2nn(-c3ccc(C(F)(F)F)nc3)c3cccnc23)cc1=O [Compound 40, (S)-1-(1-(pyridin-2-yl)ethyl)-4-(1-(6-(trifluoromethyl)pyridin-3-yl)-1H-pyrazolo[4,3-b]pyridin-3-yl)pyridin-2(1H)-one]",> 1000,≤ 1000
"Cn1ccc(Cn2ccc(-n3nc(-c4ccc(C(F)(F)F)cc4)c4ncccc43)cc2=O)n1 [Compound 41, 1-((1-methyl-1H-pyrazol-3-yl)methyl)-4-(3-(4-(trifluoromethyl)phenyl)-1H-pyrazolo[4,3-b]pyridin-1-yl)pyridin-2(1H)-one]",≤ 100,≤ 1000
"CNc1nccc(Cn2ccc(-n3nc(-c4ccc(C(F)(F)F)cc4)c4ncccc43)cc2=O)n1 [Compound 42, 1-((2-(methylamino)pyrimidin-4-yl)methyl)-4-(3-(4-(trifluoromethyl)phenyl)-1H-pyrazolo[4,3-b]pyridin-1-yl)pyridin-2(1H)-one]",≤ 100,≤ 1000
"Cn1ccnc1Cn1ccc(-n2nc(-c3ccc(C(F)(F)F)cc3)c3ncccc32)cc1=O [Compound 43, 1-((1-methyl-1H-imidazol-2-yl)methyl)-4-(3-(4-(trifluoromethyl)phenyl)-1H-pyrazolo[4,3-b]pyridin-1-yl)pyridin-2(1H)-one]",100 to 1000,≤ 1000
O=c1cc(-n2nc(-c3ccc(C(F)(F)F)cc3)c3ncccc32)ccn1Cc1ccn(CCO)n1 [Compound 45],≤ 100,≤ 1000
"O=c1cc(-n2nc(-c3ccc(C(F)(F)F)cc3)c3ncccc32)ccn1Cc1ccnc(NCCO)n1 [Compound 46, 1-((2-((2-hydroxyethyl)amino)pyrimidin-4-yl)methyl)-4-(3-(4-(trifluoromethyl)phenyl)-1H-pyrazolo[4,3-b]pyridin-1-yl)pyridin-2(1H)-one]",≤ 100,≤ 1000
"CN(CCO)c1nccc(Cn2ccc(-n3nc(-c4ccc(C(F)(F)F)cc4)c4ncccc43)cc2=O)n1 [Compound 47, 1-((2-((2-hydroxyethyl)(methyl)amino)pyrimidin-4-yl)methyl)-4-(3-(4-(trifluoromethyl)phenyl)-1H-pyrazolo[4,3-b]pyridin-1-yl)pyridin-2(1H)-one]",≤ 100,≤ 1000
"CNc1ccnc(Cn2ccc(-n3nc(-c4ccc(C(F)(F)F)cc4)c4nccnc43)cc2=O)n1 [Compound 49, 1-((4-(methylamino)pyrimidin-2-yl)methyl)-4-(3-(4-(trifluoromethyl)phenyl)-1H-pyrazolo[3,4-b]pyrazin-1-yl)pyridin-2(1H)-one]",≤ 100,≤ 1000

# Further lines, with some results ahead:
IC50 [1] [nM],Compound,IC50 (MSTO-211H cells) [nM]
≤ 100,"O=c1cc(-c2nn(-c3ccc(C(F)(F)F)cc3)c3ccccc23)ccn1Cc1ncccn1 [Compound 15, 1-(pyrimidin-2-ylmethyl)-4-(1-(4-(trifluoromethyl)phenyl)-1H-indazol-3-yl)pyridin-2(1H)-one]",≤ 1000
100 to 1000,"Cc1cc(Cn2ccc(-c3nn(-c4ccc(C(F)(F)F)cc4)c4ccccc34)cc2=O)n(C)n1 [Compound 16, 1-((1,3-dimethyl-1H-pyrazol-5-yl)methyl)-4-(1-(4-(trifluoromethyl)phenyl)-1H-indazol-3-yl)pyridin-2(1H)-one]",≤ 1000
≤ 100,"Nc1ccnc(Cn2ccc(-c3nn(-c4ccc(C(F)(F)F)cc4)c4ccccc34)cc2=O)n1 [Compound 17, 1-((4-aminopyrimidin-2-yl)methyl)-4-(1-(4-(trifluoromethyl)phenyl)-1H-indazol-3-yl)pyridin-2(1H)-one]",≤ 1000
≤ 100,"O=c1cc(-c2nn(-c3ccc(C(F)(F)F)cc3)c3ccccc23)ccn1Cc1cccnc1 [Compound 18, 1-(pyridin-3-ylmethyl)-4-(1-(4-(trifluoromethyl)phenyl)-1H-indazol-3-yl)pyridin-2(1H)-one]",≤ 1000
≤ 100,"O=c1cc(-c2nn(-c3ccc(C(F)(F)F)cc3)c3ccccc23)ccn1Cc1ccncc1 [Compound 19, 1-(pyridin-4-ylmethyl)-4-(1-(4-(trifluoromethyl)phenyl)-1H-indazol-3-yl)pyridin-2(1H)-one]",≤ 1000
> 1000,"C[C@@H](c1ccccn1)n1ccc(-c2nn(-c3ccc(C(F)(F)F)cc3)c3cc(C(N)=O)ccc23)cc1=O [Compound 30, (S)-3-(2-oxo-1-(1-(pyridin-2-yl)ethyl)-1,2-dihydropyridin-4-yl)-1-(4-(trifluoromethyl)phenyl)-1H-indazole-6-carboxamide]",≤ 1000
≤ 100,"C[C@@H](c1ccccn1)n1ccc(-c2nn(-c3ccc(C(F)(F)F)cc3)c3ccc(F)cc23)cc1=O [Compound 33, (S)-4-(5-fluoro-1-(4-(trifluoromethyl)phenyl)-1H-indazol-3-yl)-1-(1-(pyridin-2-yl)ethyl)pyridin-2(1H)-one]",≤ 1000
≤ 100,"Cn1nccc1Cn1ccc(-c2nn(-c3ccc(C(F)(F)F)cc3)c3ccccc23)cc1=O [Compound 37, 1-((1-methyl-1 H-pyrazol-5-yl)methyl)-4-(1-(4-(trifluoromethyl)phenyl)-1H-indazol-3-yl)pyridin-2(1H)-one]",≤ 1000
≤ 100,"Cn1ccc(Cn2ccc(-c3nn(-c4ccc(C(F)(F)F)cc4)c4ccccc34)cc2=O)n1 [Compound 38, 1-((1-methyl-1H-pyrazol-3-yl)methyl)-4-(1-(4-(trifluoromethyl)phenyl)-1H-indazol-3-yl)pyridin-2(1H)-one]",≤ 1000
> 1000,"Cn1cncc1Cn1ccc(-c2nn(-c3ccc(C(F)(F)F)cc3)c3ccccc23)cc1=O [Compound 39, 1-((1-methyl-1H-imidazol-5-yl)methyl)-4-(1-(4-(trifluoromethyl)phenyl)-1H-indazol-3-yl)pyridin-2(1H)-one]",≤ 1000
≤ 100,"O=c1cc(-c2nn(-c3ccc(C(F)(F)F)cc3)c3ncccc23)ccn1Cc1ccnc(NC2CC2)n1 [Compound 44, 1-((2-(cyclopropylamino)pyrimidin-4-yl)methyl)-4-(1-(4-(trifluoromethyl)phenyl)-1H-pyrazolo[3,4-b]pyridin-3-yl)pyridin-2(1H)-one]",≤ 1000
≤ 100,"CNc1ccnc(Cn2ccc(-n3nc(-c4ccc(C(F)(F)F)cc4)c4ncccc43)cc2=O)n1 [Compound 48, 1-((4-(methylamino)pyrimidin-2-yl)methyl)-4-(3-(4-(trifluoromethyl)phenyl)-1H-pyrazolo[4,3-b]pyridin-1-yl)pyridin-2(1H)-one]",≤ 1000

# From patent US20250154127A1, “BICYCLIC HETEROARYL COMPOUNDS AND USES THEREOF” (ETERN BIOPHARMA (SHANGHAI) CO., LTD., priority 2022, published 2025)
